According to PMC7247425, “MRP1-Collateral Sensitizers as a Novel Therapeutic Approach in Resistant Cancer Therapy: An In Vitro and In Vivo Study in Lung Resistant Tumor” (International Journal of Molecular Sciences, 2020):

Experiments:
[1] = system: A549/DX; assay: Mitochondrial ROS production in A549/DX (MitoSOX Red); type: cell-based, human; conditions: 24 h; for Mitochondrial ROS production with cis-Pt: 10 μM + cis-Pt 25 μM; for Mitochondrial ROS production, compound alone / Mitochondrial ROS production with Mitotempol: 10 μM; for Mitochondrial ROS production with Mitotempol: Mitotempol 10 mM
Method: An increase in ROS of mitochondrial origin is particularly effective in killing multidrug-resistant cells. To investigate whether the ROS were of mithocondrial origin, the same experiment was set up evaluating ROS production at 24 h with Mitotempol, the scavenger of mithocondrial ROS.
(§1) Here, 1 × 10^6 cells were re-suspended in a final volume of 0.5 mL PBS and incubated for 30 min at 37 °C with 5 μM of the fluorescent probe MitoSOX Red (Invitrogen Life Technology, Milano, Italy) in the dark. Cells were then centrifuged at 13,000× g at 37 °C and re-suspended in 0.5 mL PBS. The fluorescence of each sample, considered as the index of ROS levels, was read at 510 (λ excitation) and 580 nm (λ emission) using a Synergy HT Multi-Mode Microplate Reader (Bio-Tek Instruments). The results were expressed as nmol mitochondrial ROS/mg cell proteins. A preliminary titration curve was set up by incubating the cells for 1 h with the cells treated with serial dilutions (10–0.01 nM) of the pro-oxidant agent menadione.

[2] = system: A549/DX; assay: Intracellular total ROS production in A549/DX (DCFDA-AM); type: cell-based, human; conditions: for Intracellular ROS production with cis-Pt: 10 μM + 25 μM cis-Pt; for Intracellular ROS production with cis-Pt / Intracellular ROS production, compound alone: 24 h; for Intracellular ROS production, compound alone / Intracellular ROS production with ROS scavenger Tempol: 10 μM; for Intracellular ROS production with ROS scavenger Tempol: with 10 mM Tempol
From the text: One of the possible reasons of this sensitization is the ability of these three compounds to inhibit the efflux of cis-Pt, which is MRP1-mediated. […] This could be associated with a second reason, considering one of the putative mechanisms of CS consisting of an increased production of ROS, capable of triggering the apoptosis of MDR cells. To investigate whether this mechanism is involved in the sensitizing effects elicited by F397, F400, and F421, we measured the intracellular ROS production in A549/DX after 24 h treatment with these three molecules at 10 μM, with and without 25 μM cis-Pt (Figure 5A). […] Moreover, to verify whether the increase in ROS induced the reduction in cell viability elicited by the compounds, we evaluated the antiproliferative effect at 72 h of these three sensitizers alone and with 25 μM cis-Pt, adding 10 mM Tempol at time zero and after 48 h from the incubation.
as §1, with “10^6 whole” for “10^6”, “5-(and-6)-chloromethyl-2’,7’-dichlorodihydro-fluorescein diacetate-acetoxymethyl ester (DCFDA-AM, Sigma Chemicals Co.)” for “MitoSOX Red (Invitrogen Life Technology, Milano, Italy)”, “492” for “510”, “517” for “580”, “total” for “mitochondrial”

[3] = system: A549/DX cells; assay: Cell viability (MTT) of A549/DX cells at 72 h, alone and in co-administration; type: cell-based, human; conditions: for Cell viability / cytotoxic effect, compound alone: 10 μM; for Cell viability in co-administration with MRP1 inhibitor MK571: compound 10 μM + MK571 25 μM; for Cytotoxic effect in co-administration with cis-Pt: compound 10 μM + cis-Pt 25 μM
Method: Indeed, the accurate detection of cell viability in A549 cells was critical in calculating the SR in a reliable manner.
First, we wondered if there was a correlation between the inhibition of the MRP1 protein and the CS properties of the compounds.
The determination of cell growth was performed using an MTT assay at 24 or 72 h. On day 1, 10,000 cells/well were seeded into 96-well plates in a volume of 100 μL. […] In all the experiments, the various drug solvents (ethanol, DMSO) were added in each control to evaluate a possible solvent cytotoxicity. After the established incubation time with drugs, 10 μL MTT (0.5 mg/mL) was added to each well, and after 3 h incubation at 37°C, the supernatant was removed. The formazan crystals were solubilized using 100 μL of DMSO and the absorbance values at 570 and 630 nm were determined on the microplate reader Victor 3 from PerkinElmer Life Sciences. The absorbance of the untreated cells was considered equal to 100% cell viability; the viability of cells measured in each experimental condition was expressed as a percentage of viable cells in the considered condition vs. the viability of the untreated cells.

[4] = system: A549/DX cells; assay: Cytotoxicity in A549/DX and parental A549 cells, selectivity ratio; type: cell-based, human; conditions: cytotoxicity in parental A549 vs resistant A549/DX cells, 24 h
From the text: Therefore, A549/DX cells were selected as a model to investigate the CS properties of our compounds. Firstly, in order to confirm the data observed on the “pure” model MDCK-MRP1, we tested, in the same experimental conditions, the SR of F397, F400, and F421 by measuring their cytotoxicity in the resistant A549/DX cells and their parental counterpart A549, obtaining an SR ≥ 2 for all (SR = 2.5 for derivative F397, SR = 2.1 for F400, and SR = 2 for F421).
Since the doubling time of A549 cells is 22 h and the doubling time of A549/DX cells is 61 h (data not shown), in this first experimental set we used a 24 h time, i.e., the most suitable for A549 cells’ cytotoxicity as performed in the “pure” MRP1 model. Indeed, the accurate detection of cell viability in A549 cells was critical in calculating the SR in a reliable manner. The following experiments, all performed in A549/DX cells, were performed after 72 h, i.e., the best timing to detect a cytotoxic effect on the slowly growing resistant population.
The determination of cell growth was performed using an MTT assay at 24 or 72 h. On day 1, 10,000 cells/well were seeded into 96-well plates in a volume of 100 μL. On day 2, the drugs concentrations (0.1, 1, 10, 25 μM) were added. In all the experiments, the various drug solvents (ethanol, DMSO) were added in each control to evaluate a possible solvent cytotoxicity. After the established incubation time with drugs, 10 μL MTT (0.5 mg/mL) was added to each well, and after 3 h incubation at 37°C, the supernatant was removed. The formazan crystals were solubilized using 100 μL of DMSO and the absorbance values at 570 and 630 nm were determined on the microplate reader Victor 3 from PerkinElmer Life Sciences. The absorbance of the untreated cells was considered equal to 100% cell viability; the viability of cells measured in each experimental condition was expressed as a percentage of viable cells in the considered condition vs. the viability of the untreated cells.

[5] = molecular target: MRP1 (Homo sapiens, UniProt P33527); assay: Calcein-AM transport inhibition in MDCK-MRP1 cells (MRP1 activity)
Chain of MRP1 (P33527 whole entry): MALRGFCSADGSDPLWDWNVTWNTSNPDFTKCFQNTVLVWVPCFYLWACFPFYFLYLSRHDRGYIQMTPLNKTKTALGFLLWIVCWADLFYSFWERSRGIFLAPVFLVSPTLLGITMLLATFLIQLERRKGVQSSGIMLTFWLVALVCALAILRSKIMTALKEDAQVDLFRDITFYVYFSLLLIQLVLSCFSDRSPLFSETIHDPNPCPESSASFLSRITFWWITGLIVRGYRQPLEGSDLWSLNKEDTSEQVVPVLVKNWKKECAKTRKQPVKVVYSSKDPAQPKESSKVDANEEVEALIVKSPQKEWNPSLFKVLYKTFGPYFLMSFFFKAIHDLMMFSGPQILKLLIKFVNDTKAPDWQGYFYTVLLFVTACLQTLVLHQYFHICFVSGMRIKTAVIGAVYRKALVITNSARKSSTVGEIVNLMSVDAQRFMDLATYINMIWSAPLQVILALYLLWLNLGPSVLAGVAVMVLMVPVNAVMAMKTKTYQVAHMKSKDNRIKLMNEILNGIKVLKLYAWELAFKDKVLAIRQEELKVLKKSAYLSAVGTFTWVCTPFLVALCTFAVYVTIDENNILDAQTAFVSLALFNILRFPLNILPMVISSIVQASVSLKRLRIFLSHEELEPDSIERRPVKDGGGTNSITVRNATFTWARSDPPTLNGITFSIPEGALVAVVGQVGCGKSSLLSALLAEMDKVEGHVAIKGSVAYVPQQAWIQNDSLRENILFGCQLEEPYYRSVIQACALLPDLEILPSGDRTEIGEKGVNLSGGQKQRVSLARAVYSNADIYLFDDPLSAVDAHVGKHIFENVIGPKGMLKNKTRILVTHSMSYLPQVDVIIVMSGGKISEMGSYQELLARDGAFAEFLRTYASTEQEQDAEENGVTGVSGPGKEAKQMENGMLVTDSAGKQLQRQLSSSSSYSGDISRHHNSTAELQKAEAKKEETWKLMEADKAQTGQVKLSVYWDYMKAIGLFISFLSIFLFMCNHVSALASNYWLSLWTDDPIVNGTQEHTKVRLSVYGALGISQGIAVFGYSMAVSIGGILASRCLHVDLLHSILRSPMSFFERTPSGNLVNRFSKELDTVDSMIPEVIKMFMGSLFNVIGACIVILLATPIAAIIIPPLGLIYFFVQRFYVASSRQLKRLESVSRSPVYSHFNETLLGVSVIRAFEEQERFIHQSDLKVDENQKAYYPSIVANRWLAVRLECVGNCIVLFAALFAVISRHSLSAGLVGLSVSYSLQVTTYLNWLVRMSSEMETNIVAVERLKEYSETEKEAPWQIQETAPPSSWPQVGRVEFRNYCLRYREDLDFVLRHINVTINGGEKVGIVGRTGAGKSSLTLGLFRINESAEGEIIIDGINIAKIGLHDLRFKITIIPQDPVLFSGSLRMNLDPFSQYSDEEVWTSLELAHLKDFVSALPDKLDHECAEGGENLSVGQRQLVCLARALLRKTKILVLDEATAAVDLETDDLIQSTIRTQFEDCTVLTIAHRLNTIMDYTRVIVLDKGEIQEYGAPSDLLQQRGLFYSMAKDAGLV
Method: The activity at the MRP1 pump was determined measuring the transport inhibition of the pro-fluorescent probe Calcein-AM, an MRP1 substrate, in the MRP1-overexpressing cell line (MDCK-MRP1) by the in vitro biological assay usually performed to study an MRP1 interaction.
Each cell line (30,000 cells per well) was seeded into a black CulturePlate 96/well plate with a 100 μL medium and allowed to become confluent overnight. […] In these experimental conditions, the Calcein cell accumulation in the absence and in the presence of the tested compounds was evaluated and the fluorescence basal level was estimated with the untreated cells. In treated wells, the increase in fluorescence with respect to the basal level was measured. EC50 values were determined by fitting the fluorescence increase percentage vs. log(dose).

[6] = molecular target: sigma-2 receptors; conditions: cited from earlier work; for Ki: read-out: Ki towards sigma-2 receptors

| Structure (SMILES) | Mitochondrial ROS production with cis-Pt [1] | Mitochondrial ROS production, compound alone [1] | Mitochondrial ROS production with Mitotempol [1] | Intracellular ROS production with cis-Pt [2] | Intracellular ROS production, compound alone [2] | Intracellular ROS production with ROS scavenger Tempol [2] | Cell viability / cytotoxic effect, compound alone [3] | Cell viability in co-administration with MRP1 inhibitor MK571 [3] | Cytotoxic effect in co-administration with cis-Pt [3] | SR (selectivity ratio) [4] | EC50 [5] | Ki [6] | sigma-2 receptor affinity [6] |
| --- | --- | --- | --- | --- | --- | --- | --- | --- | --- | --- | --- | --- | --- |
| COc1ccc(CNCCCCc2cn(-c3ccc(F)cc3)c3ccccc23)cc1OC [F421, N-{4-[1-(4-fluorophenyl)-1H-indol-3-yl]butyl}-3,4-dimethoxybenzylamine] | enforced by the concurrent administration of cis-Pt | increased the intramithocondrial ROS | reversed by Mitotempol | further enhanced when they were co-administrated with the antineoplastic drug | increased the amount of intracellular ROS | reverted by the ROS scavenger Tempol | cytotoxic effect on their own | reverted by the MRP1 inhibitor MK571 | drastically increases upon co-administration with cis-Pt | 2 | 28 ± 4.8 µM | 0.169 µM |  |
| COc1cc2c(cc1OC)CN(C(=O)CCC1CCCc3c(OC)cccc31)CC2 (stereo not drawn) [F400, 6,7-dimethoxy-2-[3-(5-methoxy-1,2,3,4-tetrahydronaphthalen-1-yl)propionyl]-1,2,3,4 tetrahydroisoquinoline] | enforced by the concurrent administration of cis-Pt | increased the intramithocondrial ROS | reversed by Mitotempol | further enhanced when they were co-administrated with the antineoplastic drug | increased the amount of intracellular ROS | reverted by the ROS scavenger Tempol | cytotoxic effect on their own | reverted by the MRP1 inhibitor MK571 | drastically increases upon co-administration with cis-Pt | 2.1 | 17.6 ± 3.8 µM |  | devoid of sigma-2 receptor affinity |
| COc1cc2c(cc1OC)CN(CCCCc1cn(-c3ccc(F)cc3)c3ccccc13)CC2 [F397, 6,7-dimethoxy-2-{4-[1-(4-fluorophenyl)-1H-indol-3-yl]butyl}-1,2,3,4-tetrahydroisoquinoline] | enforced by the concurrent administration of cis-Pt | increased the intramithocondrial ROS | reversed by Mitotempol | further enhanced when they were co-administrated with the antineoplastic drug | increased the amount of intracellular ROS | reverted by the ROS scavenger Tempol | cytotoxic effect on their own | reverted by the MRP1 inhibitor MK571 | drastically increases upon co-administration with cis-Pt | 2.5 | 16.7 ± 3.2 µM | 0.00534 µM |  |
